Columns and labels:
[1] = tested on: prostate cancer lesions; assay: [^89Zr]Zr-PSMA-617 PET/CT tumor lesion detection and uptake in biochemical recurrence; assay type: in vivo, human (patients)
Experimental: Three patients had undetermined findings on [^68Ga]Ga-PSMA-11 PET/CT with no definite assignment to pathological or physiological uptake, e.g., faintly accumulating or unusually located tracer uptake. The time interval between both, [^89Zr]Zr-PSMA-617 and [^68Ga]Ga-PSMA-11 PET/CT, was 31 ± 18 days (range 5–49 days), with no treatment performed in between. Prostate-specific antigen (PSA) serum level at time of imaging ranged from 0.43 to 1.92 ng/ml. All patients were initially treated with radical prostatectomy (RP). Initial Gleason score ranged from 7a to 9. Four patients underwent salvage treatments such as androgen-deprivation therapy (ADT), lymphadenectomy (LA) or radiation therapy (RT). Detailed patient characteristics including age, Gleason score, primary therapy, salvage therapies, time from initial diagnosis (ID) of prostate cancer, PSA and PSA doubling time (DT) are presented in Table 1. [^89Zr]Zr-PSMA-617 PET/CT imaging was performed on a compassionate use basis under the German Pharmaceutical Act §13 (2b). The medical indication for the examination and the labeling of the tracer were under the direct responsibility of the applying physician. Patients gave their written consent after being thoroughly informed about the general risks of both radiation exposure and application of a novel PET tracer including possible adverse effects of, e.g., therapeutic PSMA tracers. Furthermore, all patients agreed to the publication of the resulting data in accordance with the Declaration of Helsinki.
(§1) Each patient underwent PET/CT imaging scans at 4 time points: 1 h, 24 h, 48 h, and 72 h post intravenous injection (p.i.) of 111 ± 11 MBq (mean ± standard deviation, range 97–129 MBq) [^89Zr]Zr-PSMA-617. All PET/CT imaging was performed on a Biograph mCT 40 scanner (Siemens Medical Solutions, Knoxville, TN, USA) comprising whole-body PET/CT scans extending from vertex to mid-femur in 3D mode. PET acquisition time duration was 4 min per bed position on the initial day of injection and extended up to 10 min on the last day. CT data were acquired in low-dose technique using an X-ray tube voltage of […] and a modulation of the tube current (CARE Dose4D, Siemens Erlangen; maximal tube current 30 mA) followed by reconstruction with a soft tissue reconstruction kernel (B31f) to a slice thickness of 5 mm (increment 2–4 mm). PET emission data was corrected for decay, randoms, and scatter. PET image reconstruction was performed applying an iterative 3-dimensional ordered-subset expectation maximization (OSEM) algorithm (3 iterations; 24 subsets) with gaussian filtering to a transaxial resolution of 5 mm at full width half maximum (FWHM). The matrix and the pixel size were 200 × 200 and 3.0 mm, respectively. Attenuation correction was performed using the low-dose CT data.
Three physicians with long-time experience in PSMA-targeted PET/CT (S.E., F.K., and F.R.) visually identified suspicious lesions taking into account all four imaging time points (1 h, 24 h, 48 h, and 72 h p.i.).

[2] = [^89Zr]Zr-PSMA-617 PET/CT biodistribution in normal organs (SUV, tissue-to-background ratio); assay type: in vivo, human (patients); conditions: for SUVmax: mean ± SD
Experimental: as §1
The biodistribution of [^89Zr]Zr-PSMA-617 was quantified by analyzing the standard uptake values (SUV) SUVmax, SUVpeak and SUVmean at 1 h, 24 h, 48 h, and 72 h p.i.. Considering normal-organs, elliptical volumes of interest (VOI) were manually drawn enclosing regions of relatively homogenous uptake. Activity estimation was performed within the VOI applying a 40% or, in case of faintly accumulating organs, a 20% threshold using the SyngoVia software (Enterprise VB 60, Siemens, Erlangen, Germany). The following organs were included in this evaluation: the brain, salivary, and lacrimal glands, nasal mucosa, lung, liver, spleen, small and large intestine, and the kidneys. With regard to the large intestine, SUV was determined at the descending colon. Blood pool and background were evaluated in the descending aorta and the gluteal muscle, respectively. Tissue-to-background ratios (TiBR) were calculated by dividing the SUVmax of the organs by the SUVmean of the background (gluteal muscle).

[3] = of the 11 lesions not visible at 1 h p.i.

With `O=C([O-])CN1CCN(CC(=O)[O-])CCN(CC(=O)NCC2CCC(C(=O)NC(Cc3ccc4ccccc4c3)C(=O)NCCCCC(NC(=O)NC(CCC(=O)O)C(=O)O)C(=O)O)CC2)CCN(CC(=O)[O-])CC1.[89Zr+4]` (centres unmarked) [[^89Zr]Zr-PSMA-617] the “Patients whose undetermined [^68Ga]Ga-PSMA-11 findings were confirmed” value ([1]; 3 patients with undetermined findings in [^68Ga]Ga-PSMA-11 PET/CT) was 2 of 3, the “Detectability of tumor lesions at late time points” value ([1]; 48 h p.i. and 72 h p.i.) was “All tumor lesions were detectable” and the “Findings on [^89Zr]Zr-PSMA-617 PET/CT” value ([1]; Pt. no 1, PSA 1.92 ng/ml) was “Local recurrence”. The “Findings on [^89Zr]Zr-PSMA-617 PET/CT” value ([1]; Pt. no 2, PSA 1.75 ng/ml) was 3 × LNM (no right iliac LNM), the “Findings on [^89Zr]Zr-PSMA-617 PET/CT” value ([1]; Pt. no 3, PSA 0.66 ng/ml) was “No suspicious findings” and the “Findings on [^89Zr]Zr-PSMA-617 PET/CT” value ([1]; Pt. no 4, PSA 1.77 ng/ml) was “Peritoneal metastasis + 4 × LNM”. For the same molecule, the “Findings on [^89Zr]Zr-PSMA-617 PET/CT” value ([1]; Pt. no 5, PSA 0.63 ng/ml) was 1 × LNM, the “Findings on [^89Zr]Zr-PSMA-617 PET/CT” value ([1]; Pt. no 6, PSA 0.43 ng/ml) was “Local recurrence (in seminal vesicle bed)” and the “Findings on [^89Zr]Zr-PSMA-617 PET/CT” value ([1]; Pt. no 7, PSA 0.68 ng/ml) was “Local recurrence + 2 × LNM”. For the same molecule, the “Total number of lesions suggestive for prostate cancer” value ([1]; all 7 patients, range 1–5 per patient) was 14 lesions, the “Tumor lesions identified at 1 h p.i. (also visible in [^68Ga]Ga-PSMA-11 PET/CT)” value ([1]; in 3 patients) was “Three” and the “Patients with at least one prostate cancer lesion detected” value ([1]; of 7 patients with negative or undetermined [^68Ga]Ga-PSMA-11 PET/CT) was 6 patients. For the same molecule, the “Peritoneal metastases among identified lesions” value ([1]; of n = 14 lesions) was 1 lesions, the “Tumor lesions not visible at 1 h p.i. but delineated at later time points” value ([1]; of n = 14 lesions) was 11 lesions and the “Local recurrences among identified lesions” value ([1]; of n = 14 lesions, in 3 patients) was 3 lesions. For the same molecule, the “Lymph node metastases among identified lesions” value ([1]; of n = 14 lesions, in 4 patients) was 10 lesions, the “Tumor lesions first visible at 24 h p.i.” value [1, 3] was 9 lesions and the “Tumor lesions first visible at 48 h p.i.” value [1, 3] was 2 lesions. The “SUVmax of tumor lesion” value ([1]; patient no. 1, focal uptake in the prostate bed (local recurrence), 48 h p.i.) was 3.68, the “SUVmax of tumor lesion” value ([1]; patient no. 4, peritoneal lesion (peritoneal metastasis), 48 h p.i.) was 2.87 and the “SUVmax of tumor lesion” value ([1]; patient no. 6, local recurrence in left seminal vesicle bed, 1 h p.i.) was 7.04. For the same molecule, the “SUVmax of tumor lesion” value ([1]; patient no. 6, local recurrence in left seminal vesicle bed, 24 h p.i.) was 21.27, the “SUVmax of tumor lesion” value ([1]; patient no. 6, local recurrence in left seminal vesicle bed, 48 h p.i.) was 21.09 and the “SUVmax of tumor lesion” value ([1]; patient no. 6, local recurrence in left seminal vesicle bed, 72 h p.i.) was 19.19. For the same molecule, the “SUVmax of tumor lesion” value ([1]; patient no. 7, pelvic lymph node metastasis, 48 h p.i.) was 8.06, the SUVmax ([2]; colon, 1 h p.i.) was 3.50 ± 2.21 and the SUVmax ([2]; colon, 72 h p.i.) was 13.57 ± 5.00. For the same molecule, the SUVmax ([2]; kidneys, 1 h p.i.) was 21.15 ± 12.31, the SUVmax ([2]; kidneys, 72 h p.i.) was 7.43 ± 1.56 and the “Tissue-to-background ratio (TiBR)” value ([2]; salivary glands, kidneys, and colon at 72 h p.i., SUVmax organ / SUVmean gluteal muscle) was no less than 50. For the same molecule, the SUVmax ([2]; submandibular gland, 24 h p.i.) was 17.30 ± 4.69 and the SUVmax ([2]; submandibular gland, 72 h p.i.) was 6.29 ± 1.61.
